# Source: US12371454B2, “Cyclic peptide compound having Kras inhibitory action” (priority 2019, dated 2025)
# Positions of bridges follow the written chain, without caps; N, C: chain ends. Non-standard residues stand in square brackets, D forms with d. Residues, ends and D or L forms follow the SMILES beside them. *: point of attachment. hPhe(3-Cl-4-CF3) = N[C@@H](CCc1ccc(C(F)(F)F)c(Cl)c1)C(=O)O; hPhe(3-F,4-CF3) = N[C@@H](CCc1ccc(C(F)(F)F)c(F)c1)C(=O)O; NMePhe(4-Me) = CN[C@@H](Cc1ccc(C)cc1)C(=O)O; NMeNle(6-CHF2) = CN[C@@H](CCCCC(F)F)C(=O)O; NMeGly(cPent) = CN[C@H](C(=O)O)C1CCCC1; NMeCha = CN[C@@H](CC1CCCCC1)C(=O)O; NMeAllylGly = C=CC[C@H](NC)C(=O)O; NMeChg = CN[C@H](C(=O)O)C1CCCCC1; dNMeF = CN[C@H](Cc1ccccc1)C(=O)O; αMeF = C[C@](N)(Cc1ccccc1)C(=O)O; NMeD = CN[C@@H](CC(=O)O)C(=O)O; CH2CONHtBu = CC(C)(C)NC(=O)C*; NMeL = CN[C@@H](CC(C)C)C(=O)O; Chg = N[C@H](C(=O)O)C1CCCCC1; dNMeAbu = CC[C@@H](NC)C(=O)O; NMeV = CN[C@H](C(=O)O)C(C)C; d(β3hA) = C[C@@H](N)CC(=O)O; NMeAbu = CC[C@H](NC)C(=O)O; NMeS = CN[C@@H](CO)C(=O)O; dNMeS = CN[C@H](CO)C(=O)O; NMeA = CN[C@@H](C)C(=O)O; Piperidide = C1CCN(*)CC1; Pyrrolidide = C1CCN(*)C1; dNMeA = CN[C@H](C)C(=O)O; Ac5c = NC1(C(=O)O)CCCC1; Aze = O=C(O)[C@@H]1CCN1; Abu = CC[C@H](N)C(=O)O; Aib = CC(C)(N)C(=O)O; Isopentyl = CC(C)CC*; Sar = CNCC(=O)O
# Molecular target: T1, Kras and SOS1 (biotin-tagged human Kras loaded with GDP, His-tagged human SOS1) (Homo sapiens, UniProt P01116, G12D)
# T1 construct: made in house; host or cells: E. coli (stated for Kras only)
# Experiment: Protein-protein interaction inhibition between Kras and SOS1 (KrasGl2D-SOS PPI) using AlphaScreen
# Format: binding
# Conditions: AlphaScreen; biotin-tagged human Kras loaded with GDP, His-tagged human SOS1; read-out: KRAS G12D-SOS PPI IC50
# Procedure, shortened: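 Read-out is acceptor-bead light at 520-620 nm, arising when 680 nm-irradiated nickel donor beads pass singlet oxygen to streptavidin acceptors. The bead pair links His-tagged SOS1 with biotin-tagged, GDP-bound Kras from E. coli.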
# T1 sequence (P01116 1-188 isoform P01116-2 G12D): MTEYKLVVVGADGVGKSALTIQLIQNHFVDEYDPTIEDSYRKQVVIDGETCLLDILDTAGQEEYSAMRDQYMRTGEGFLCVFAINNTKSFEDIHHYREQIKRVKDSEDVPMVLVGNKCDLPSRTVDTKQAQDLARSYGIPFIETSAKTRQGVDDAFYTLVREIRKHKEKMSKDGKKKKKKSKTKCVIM
row,Compound,IC50 [nM]
1,CC[C@H](C)[C@@H]1NC(=O)[C@H](CC(C)C)N(C)C(=O)C[C@@H](C(=O)N2CCCCC2)N(C)C(=O)[C@H](C(C)C)N(C)C(=O)C2(CCCC2)NC(=O)[C@@H](COCCC(C)C)N(C)C(=O)[C@H](CCc2ccc(C(F)(F)F)c(Cl)c2)NC(=O)CN(C)C(=O)[C@H](CC2CCCCC2)N(C)C(=O)[C@@H]2CCN2C(=O)[C@H](C)N(C)C1=O [Compound 1437] ([NMeL]I[NMeA][Aze][NMeCha][Sar][hPhe(3-Cl-4-CF3)][dNMeS](Isopentyl)[Ac5c][NMeV][NMeD]-Piperidide; lactam N-11),81
2,CC[C@@H]1C(=O)NC2(CCCC2)C(=O)N(C)[C@@H](C(C)C)C(=O)N(C)[C@H](C(=O)N2CCCCC2)CC(=O)N(C)[C@@H](CC(C)C)C(=O)N[C@@H]([C@@H](C)CC)C(=O)N(C)[C@@H](C)C(=O)N2CC[C@H]2C(=O)N(C)[C@@H](CC2CCCCC2)C(=O)N(C)CC(=O)N[C@@H](CCc2ccc(C(F)(F)F)c(Cl)c2)C(=O)N1C [Compound 1438] ([NMeL]I[NMeA][Aze][NMeCha][Sar][hPhe(3-Cl-4-CF3)][dNMeAbu][Ac5c][NMeV][NMeD]-Piperidide; lactam N-11),36
3,CC[C@H](C)[C@@H]1NC(=O)[C@H](CC(C)C)N(C)C(=O)C[C@@H](C(=O)N2CCCCC2)N(C)C(=O)[C@H](C2CCCC2)N(C)C(=O)C2(CCCC2)NC(=O)[C@@H](COCCC(C)C)N(C)C(=O)[C@H](CCc2ccc(C(F)(F)F)c(Cl)c2)NC(=O)CN(C)C(=O)[C@H](CC2CCCCC2)N(C)C(=O)CN(C)C(=O)CN(C)C1=O [Compound 1440] ([NMeL]I[Sar][Sar][NMeCha][Sar][hPhe(3-Cl-4-CF3)][dNMeS](Isopentyl)[Ac5c][NMeGly(cPent)][NMeD]-Piperidide; lactam N-11),16
4,CC[C@@H]1C(=O)NC2(CCCC2)C(=O)N(C)[C@@H](C2CCCC2)C(=O)N(C)[C@H](C(=O)N2CCCCC2)CC(=O)N(C)[C@@H](CC(C)C)C(=O)N[C@@H]([C@@H](C)CC)C(=O)N(C)[C@@H](C)C(=O)N2CC[C@H]2C(=O)N(C)[C@@H](CC2CCCCC2)C(=O)N(C)CC(=O)N[C@@H](CCc2ccc(C(F)(F)F)c(Cl)c2)C(=O)N1C [Compound 1441] ([NMeL]I[NMeA][Aze][NMeCha][Sar][hPhe(3-Cl-4-CF3)][dNMeAbu][Ac5c][NMeGly(cPent)][NMeD]-Piperidide; lactam N-11),6.4
5,CC[C@H](C)[C@@H]1NC(=O)[C@H](CC(C)C)N(C)C(=O)C[C@@H](C(=O)N2CCCCC2)N(C)C(=O)[C@H](C(C)C)N(C)C(=O)C2(CCCC2)NC(=O)[C@@H](Cc2ccccc2)N(C)C(=O)[C@H](CCc2ccc(C(F)(F)F)c(Cl)c2)NC(=O)CN(C)C(=O)[C@H](CC2CCCCC2)N(C)C(=O)[C@@H]2CCN2C(=O)[C@H](C)N(C)C1=O [Compound 1442] ([NMeL]I[NMeA][Aze][NMeCha][Sar][hPhe(3-Cl-4-CF3)][dNMeF][Ac5c][NMeV][NMeD]-Piperidide; lactam N-11),280
6,CC[C@H](C)[C@@H]1NC(=O)[C@H](CC(C)C)N(C)C(=O)C[C@@H](C(=O)N2CCCCC2)N(C)C(=O)[C@H](C2CCCC2)N(C)C(=O)C2(CCCC2)NC(=O)[C@@H](COCCC(C)C)N(C)C(=O)[C@H](CCc2ccc(C(F)(F)F)c(Cl)c2)NC(=O)CN(C)C(=O)[C@H](CC2CCCCC2)N(C)C(=O)[C@@H]2CCN2C(=O)[C@H](C)N(C)C1=O [Compound 1443] ([NMeL]I[NMeA][Aze][NMeCha][Sar][hPhe(3-Cl-4-CF3)][dNMeS](Isopentyl)[Ac5c][NMeGly(cPent)][NMeD]-Piperidide; lactam N-11),23
7,CC[C@H](C)[C@@H]1NC(=O)[C@H](CC(C)C)N(C)C(=O)C[C@@H](C(=O)N2CCCCC2)N(C)C(=O)[C@H](C(C)C)N(C)C(=O)C2(CCCC2)NC(=O)[C@@H](CO)N(C)C(=O)[C@H](CCc2ccc(C(F)(F)F)c(Cl)c2)NC(=O)CN(C)C(=O)[C@H](CC2CCCCC2)N(C)C(=O)[C@@H]2CCN2C(=O)[C@H](C)N(C)C1=O [Compound 1444] ([NMeL]I[NMeA][Aze][NMeCha][Sar][hPhe(3-Cl-4-CF3)][dNMeS][Ac5c][NMeV][NMeD]-Piperidide; lactam N-11),8.8
8,C=CC[C@H]1C(=O)NC2(CCCC2)C(=O)N(C)[C@@H](C(C)C)C(=O)N(C)[C@H](C(=O)N2CCCCC2)CC(=O)N(C)[C@@H](CC(C)C)C(=O)N[C@@H]([C@@H](C)CC)C(=O)N(C)[C@@H](C)C(=O)N2CC[C@H]2C(=O)N(C)[C@@H](CC2CCCCC2)C(=O)N(C)CC(=O)N[C@@H](CCc2ccc(C(F)(F)F)c(Cl)c2)C(=O)N1C [Compound 1447] ([NMeL]I[NMeA][Aze][NMeCha][Sar][hPhe(3-Cl-4-CF3)][NMeAllylGly][Ac5c][NMeV][NMeD]-Piperidide; lactam N-11),100
9,C=CC[C@H]1C(=O)NC2(CCCC2)C(=O)N(C)[C@@H](C2CCCCC2)C(=O)N(C)[C@H](C(=O)N2CCCCC2)CC(=O)N(C)[C@@H](CC(C)C)C(=O)N[C@@H]([C@@H](C)CC)C(=O)N(C)CC(=O)N(C)CC(=O)N(C)[C@@H](CC2CCCCC2)C(=O)N(C)CC(=O)N[C@@H](CCc2ccc(C(F)(F)F)c(Cl)c2)C(=O)N1C [Compound 1449] ([NMeL]I[Sar][Sar][NMeCha][Sar][hPhe(3-Cl-4-CF3)][NMeAllylGly][Ac5c][NMeChg][NMeD]-Piperidide; lactam N-11),14
10,"CC(C)C[C@H]1C(=O)N[C@@H](C2CCCCC2)C(=O)N(C)CC(=O)N(C)CC(=O)N(C)[C@@H](CCCCC(F)F)C(=O)N(C)CC(=O)N[C@@H](CCc2ccc(C(F)(F)F)c(F)c2)C(=O)N(C)[C@@H](CC(C)C)C(=O)N[C@@](C)(Cc2ccccc2)C(=O)N(C)[C@@H](CC(C)C)C(=O)N[C@H](C(=O)N2CCCC2)CC(=O)N1C [Compound 1450] ([NMeL][Chg][Sar][Sar][NMeNle(6-CHF2)][Sar][hPhe(3-F,4-CF3)][NMeL][αMeF][NMeL]D-Pyrrolidide; lactam N-11)",220
11,CC(C)C[C@H]1C(=O)N[C@@H](C(C)C)C(=O)N(C)CC(=O)N(C)CC(=O)N(C)[C@@H](CC2CCCCC2)C(=O)N(C)CC(=O)N[C@@H](CCc2ccc(C(F)(F)F)c(Cl)c2)C(=O)N2CCC[C@H]2C(=O)NC2(CCCC2)C(=O)N(C)[C@@H](CC(C)C)C(=O)N[C@H](C)CC(=O)N1C [Compound 1452] (cyclo([Ac5c][NMeL][d(β3hA)][NMeL]V[Sar][Sar][NMeCha][Sar][hPhe(3-Cl-4-CF3)]P)),38
12,"CC(C)C[C@H]1C(=O)N[C@@H](C2CCCCC2)C(=O)N(C)CC(=O)N(C)CC(=O)N(C)[C@@H](CCCCC(F)F)C(=O)N(C)CC(=O)N[C@@H](CCc2ccc(C(F)(F)F)c(F)c2)C(=O)N(C)[C@@H](CC(C)C)C(=O)NC(C)(C)C(=O)N(C)[C@@H](CC(C)C)C(=O)N[C@H](C(=O)N2CCCC2)CC(=O)N1C [Compound 1453] ([NMeL][Chg][Sar][Sar][NMeNle(6-CHF2)][Sar][hPhe(3-F,4-CF3)][NMeL][Aib][NMeL]D-Pyrrolidide; lactam N-11)",110
13,"CC[C@H](C)[C@@H]1NC(=O)[C@H](CC(C)C)N(C)C(=O)C[C@@H](C(=O)N2CCCC2)NC(=O)[C@H](CC(C)C)N(C)C(=O)C(C)(C)NC(=O)[C@H](CC(C)C)N(C)C(=O)[C@H](CCc2ccc(C(F)(F)F)c(F)c2)NC(=O)CN(C)C(=O)[C@H](CCCCC(F)F)N(C)C(=O)CN(C)C(=O)CN(C)C1=O [Compound 1455] ([NMeL]I[Sar][Sar][NMeNle(6-CHF2)][Sar][hPhe(3-F,4-CF3)][NMeL][Aib][NMeL]D-Pyrrolidide; lactam N-11)",30
14,"CC[C@H](C)[C@@H]1NC(=O)[C@H](CC(C)C)N(C)C(=O)C[C@@H](C(=O)N2CCCCC2)N(C)C(=O)[C@H](CC(C)C)N(C)C(=O)C(C)(C)NC(=O)[C@H](CC(C)C)N(C)C(=O)[C@H](CCc2ccc(C(F)(F)F)c(F)c2)NC(=O)CN(C)C(=O)[C@H](CCCCC(F)F)N(C)C(=O)CN(C)C(=O)CN(C)C1=O [Compound 1456] ([NMeL]I[Sar][Sar][NMeNle(6-CHF2)][Sar][hPhe(3-F,4-CF3)][NMeL][Aib][NMeL][NMeD]-Piperidide; lactam N-11)",12
15,CC[C@@H]1NC(=O)[C@H]([C@@H](C)CC)NC(=O)[C@H](CC(C)C)N(C)C(=O)C[C@@H](C)NC(=O)[C@H](C(C)C)N(C)C(=O)C2(CCCC2)NC(=O)[C@@H]2CCCN2C(=O)[C@H](CCc2ccc(C(F)(F)F)c(Cl)c2)NC(=O)CN(C)C(=O)[C@H](CC2CCCCC2)N(C)C(=O)CN(C)C1=O [Compound 1459] (cyclo([Abu][Sar][NMeCha][Sar][hPhe(3-Cl-4-CF3)]P[Ac5c][NMeV][d(β3hA)][NMeL]I)),290
16,CC[C@H](C)[C@@H]1NC(=O)[C@H](C)N(C)C(=O)C[C@@H](C)NC(=O)[C@H](C2CCCC2)N(C)C(=O)C2(CCCC2)NC(=O)[C@@H]2CCCN2C(=O)[C@H](CCc2ccc(C(F)(F)F)c(Cl)c2)NC(=O)[C@@H](C)N(C)C(=O)[C@H](Cc2ccc(C)cc2)N(C)C(=O)CN(C)C(=O)CN(C)C1=O [Compound 1465] (cyclo([Ac5c][NMeGly(cPent)][d(β3hA)][NMeA]I[Sar][Sar][NMePhe(4-Me)][dNMeA][hPhe(3-Cl-4-CF3)]P)),51
17,CC[C@H](C)[C@@H]1NC(=O)[C@H](CC(C)C)N(C)C(=O)C[C@@H](C)NC(=O)[C@H](CC(C)C)N(C)C(=O)C(C)(C)NC(=O)[C@H](COCC(=O)NC(C)(C)C)N(C)C(=O)[C@H](CCc2ccc(C(F)(F)F)c(Cl)c2)NC(=O)CN(C)C(=O)[C@H](COCCC(C)C)N(C)C(=O)CN(C)C(=O)CN(C)C1=O [Compound 1467] (cyclo([Aib][NMeL][d(β3hA)][NMeL]I[Sar][Sar][NMeS](Isopentyl)[Sar][hPhe(3-Cl-4-CF3)][NMeS](CH2CONHtBu))),120
18,"CC[C@H](C)[C@@H]1NC(=O)[C@H](CC(C)C)N(C)C(=O)C[C@@H](C)NC(=O)[C@H](CC)N(C)C(=O)C2(CCCC2)NC(=O)[C@@H]2CCCN2C(=O)[C@H](CCc2ccc(C(F)(F)F)c(F)c2)NC(=O)CN(C)C(=O)[C@H](CC2CCCCC2)N(C)C(=O)CN(C)C(=O)CN(C)C1=O [Compound 1469] (cyclo([Ac5c][NMeAbu][d(β3hA)][NMeL]I[Sar][Sar][NMeCha][Sar][hPhe(3-F,4-CF3)]P))",230
